In ChEMBL document CHEMBL5604062, “ASAP - ZIKV NS2B-NS3 protease fluorescence dose response” (2024):
Where “and” joins values, the source holds several entries; their conditions need not be identical. Equal entries are not always repeated.

Molecular target: Nonstructural protein 3 (Zika virus, UniProt A0A024AXB9)
Assay: Functional biochemical assay to identify treatments for viral infectious disease that targets Zika NS2B-NS3 protease. Utilizing a direct enzyme activity measurement method, reading the fluorescence intensity is used to characterize the relative potency of inhibitors as IC50.
Parameters: species or system PRVABC59

Nonstructural protein 3, sequence (A0A024AXB9 whole entry): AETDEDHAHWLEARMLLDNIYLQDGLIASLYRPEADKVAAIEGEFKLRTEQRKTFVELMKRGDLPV

Row | Compound | IC50
1 | NCc1cccc(NC(=O)[C@H]2c3ccc(OCc4ccccc4)cc3CCN2C(=O)OCc2ccccc2)c1 | 17.3 µM
2 | CCCC[C@H](N)C(=O)N[C@@H](C(=O)NCc1ccc(C(N)=O)cc1)c1ccc(OCc2ccccc2)cc1 | > 99.5 µM
3 | COC(=O)c1ccc2[nH]cc(Cc3ccc(-c4nnn[nH]4)cc3)c2c1 | > 99.5 µM
4 | NCc1cccc(NC(=O)[C@@H](NC(=O)OCc2ccccc2)c2ccc(C(F)(F)F)cc2)c1 | 79.2 µM
5 | NC(=O)C1(N2CCCCC2)CCN(C(=O)C2CCN(c3ccc(C=O)cc3)CC2)CC1 | 57.5 µM
6 | CC(C)(C)Oc1ccc(S(=O)(=O)Nc2ccc(Cl)cc2C(=O)O)cc1 | > 99.5 µM
7 | Cc1ocnc1COc1cccc([C@H](NC(=O)OCc2ccccc2)C(=O)Nc2cccc(CN)c2)c1 | > 99.5 µM
8 | c1ccc2c(CN[C@H]3CCc4ncsc4C3)n[nH]c2c1 | > 99.5 µM
9 | CCn1ccnc(N(C)[C@@H](CO)Cc2c[nH]c3ccccc23)c1=O | > 99.5 µM
10 | CCCCCN(C)C(=O)c1cc(Cl)ccc1NS(=O)(=O)c1ccc(Oc2ccccc2Cl)cc1 | > 99.5 µM
11 | CS(=O)(=O)NCc1cccc(CNC(=O)[C@@H](NC(=O)OCc2ccccc2)c2ccc(OCc3ccccc3)cc2)c1 | > 99.5 µM
12 | CCn1ccnc(N2CC[C@@H](CO)C2)c1=O | > 99.5 µM
13 | Clc1ccc2[nH]cc(Cc3ccc4c(c3)CNC4)c2c1 | > 99.5 µM
14 | N#Cc1cccc(N2CCN(Cc3c[nH]c4ccccc34)CC2)c1 | 85.6 µM
15 | O=C(N[C@@H](C(=O)NCc1c[nH]cn1)c1ccc(OCc2ccccc2)cc1)OCc1ccccc1 | > 99.5 µM
16 | CNC(=O)C(=O)/C=C/c1ccccc1 | > 198 µM
17 | O=C(Nc1cc(Cl)cc(-c2cc(C(=O)O)n(-c3ccc(F)cc3)n2)c1)OCc1ccccc1 | 32.4 µM
18 | O=c1[nH]c2cc(Cl)ccc2n1Cc1ccc(-c2nn[nH]n2)cc1 | > 99.5 µM

Row | Compound | IC50
19 | C[C@@H](N)c1cccc(NC(=O)c2cc(Cl)cc(NC(=O)OCc3ccccc3)c2)c1 | 22.7 µM
20 | CCC(C)(C)C(=O)N[C@H](C(=O)Nc1cccc(CN)c1)c1ccc(OCc2ccccc2)cc1 | > 99.5 µM
21 | N[C@H]1CC[C@H](CNC(=O)[C@@H](NC(=O)OCc2ccccc2)c2ccc(OCc3ccccc3)cc2)CC1 | > 99.5 µM
22 | O=C1Nc2ccccc2[C@H]1N1CCC(c2nc3ccccc3s2)CC1 | > 99.5 µM
23 | CCn1c(=O)c(N2CC3(CCCCC3)C[C@H]2CO)nc2ccccc21 | > 99.5 µM
24 | O=C(Nc1cc(Cl)cc([C@H](Nc2cccc(-c3nn[nH]n3)c2)C(=O)NCc2ccccc2)c1)OCc1ccccc1 | 12.8 µM
25 | CCN(CC(=O)NC)C(=O)c1cc(Cl)ccc1NS(=O)(=O)c1ccc(Oc2ccccc2Cl)cc1 | > 99.5 µM
26 | CCn1cc(-c2cnn(-c3ccccc3)c2)nc(N2CC[C@@H](CO)C2)c1=O | > 99.5 µM
27 | COc1cc(COc2cncc3ccccc23)nc(N2CCNCC2)n1 | > 99.5 µM
28 | N#Cc1cc(-c2ccc3[nH]c(C(=O)O)cc3c2)c2nc[nH]c2c1 | > 99.5 µM
29 | Cc1cc(-c2ccc3[nH]c(C(=O)O)cc3c2)c(=O)n(Cc2ccccc2)c1 | > 99.5 µM
30 | Brc1cc(CNc2ccc3c(c2)CNC3)c2cc[nH]c2c1 | 4.32 µM
31 | CCn1nccc1-c1cccc([C@@H](NC(=O)OCc2ccccc2)C(=O)Nc2cccc(CN)c2)c1 | > 99.5 µM
32 | CC(C)[C@H]1C(=O)O[C@@H]1C(=O)O | > 99.5 µM
33 | c1ccc(N2CCN(Cc3c[nH]c4ccccc34)CC2)nc1 | > 99.5 µM
34 | N#C[C@]1(Nc2cccc(-c3nn[nH]n3)c2)C(=O)Nc2ccc(Cl)cc21 | > 99.5 µM
35 | O=S(=O)(Nc1cccc(-c2nnn[nH]2)c1)c1cc(F)cc(Cl)c1 | > 99.5 µM

Other lines, results leading:

Row | IC50 | Compound
36 | > 25 µM | Cc1c(C(=O)Nc2cccc([C@H]3CCOC3)c2)cc(C2CC2)n1C
37 | > 99.5 µM | O=C(O)c1cc(Cl)ccc1S(=O)(=O)NC1CCN(CC2CCOCC2)CC1
38 | > 99.5 µM | O=C(Nc1cc(Cl)cc(C(=O)Nc2ccc(S(=O)(=O)N3CCNCC3)cc2)c1)OCc1ccccc1
39 | > 99.5 µM | O=C(Cn1ccnc(N2CC[C@H](CO)C2)c1=O)Nc1ccccc1
40 | > 25 µM | Cc1c(C(=O)Nc2cc(C(=O)N[C@H]3CCOC3)ccn2)cc(C2CC2)n1C
41 | > 99.5 µM | CNc1c(-c2cc(Cl)cc(C3CC3)c2)nc2cccc(C(=O)O)n12
42 | > 99.5 µM | CC(C)[C@@H]1[C@H](C(=O)Nc2cccc(CN)c2)CCN1C(=O)OCc1ccccc1
43 | > 99.5 µM | NCc1cccc(NC(=O)[C@@H]2CCC[C@H](NC(=O)OCc3ccccc3)C2)c1
44 | > 25 µM | Cc1c(C(=O)Nc2cc(C(=O)N3CCC[C@H]3C(N)=O)ccn2)cc(C2CC2)n1C
45 | > 99.5 µM | Cc1cc(C(=O)Nc2cccc(CN)c2)c2c(C)n[nH]c2n1
46 | > 99.5 µM | CC(C)c1ncc(OC2CCC2)c(C(=O)Nc2cccc(CN)c2)n1
47 | > 25 µM | O=C(Nc1ccc2c(c1)C(=O)OC2)c1cc(CC2CCNCC2)ccc1F
48 | 0.114 µM | O=C(Nc1ccc2c(c1)CNC2)c1cc(Cl)cc(N2CCCC2)c1
49 | 99.3 µM | Cc1nc(C2CCN(Cc3c[nH]c4ccccc34)CC2)sc1C(=O)O
50 | > 99.5 µM | Cc1cc(C(=O)Nc2cccc(CN)c2)nc2c(C(C)C)cnn12
51 | > 25 µM | Cc1ccc(C)n1-c1ccc(Cl)cc1C(=O)Nc1ccc2c(c1)CNC2
52 | 2.49 µM | N[C@H]1Cc2ccc(NC(=O)c3cc(Cl)cc(NC(=O)OCc4ccccc4)c3)cc2C1
53 | > 99.5 µM | NCc1cccc(NC(=O)[C@@H]2[C@H](N)[C@@H]3CCCCC[C@@H]32)c1
54 | > 99.5 µM | O=C(NC[C@H]1CCOC1)c1cc(Cl)ccc1NS(=O)(=O)c1ccc(Oc2ccccc2Cl)cc1

Row | IC50 | Compound
55 | > 99.5 µM | O=C(O)c1cc(Cl)ccc1S(=O)(=O)N[C@H]1CC[C@H](Oc2cnccn2)CC1
56 | > 99.5 µM | N[C@@H](Cc1c[nH]cn1)C(=O)N1CCC2(CC1)OCCc1cc(O)ccc12
57 | 71.9 µM | Cc1ccc(S(=O)(=O)N2CCC([C@@H](NC(=O)OCc3ccccc3)C(=O)Nc3cccc(CN)c3)CC2)c(C)c1
58 | 1.13 µM | C[C@H]1Oc2c(cccc2C(=O)Nc2ccc3c(c2)CNC3)NC1=O
59 | > 99.5 µM | CN(C)CCNC(=O)[C@H](Nc1cccc(-c2nn[nH]n2)c1)c1cc(Cl)cc(NC(=O)OCc2ccccc2)c1
60 | > 25 µM | NCc1csc2cc(C(=O)Nc3cc([C@H]4CCOC4)ccn3)ccc12
61 | 0.046 µM and 0.034 µM | CC(C)n1cc2c(C(=O)Nc3ccc4c(c3)CNC4)cc(Cl)cc2n1
62 | 12 µM | NCc1cccc(NC(=O)c2cc(Cl)cc(N3CCCC3)c2)c1
63 | > 25 µM | CC(C)(C)OC(=O)N1Cc2cc(NC(=O)c3cc(Cl)cc4c3cnn4[C@@H]3CCCCO3)ccc2[C@H]1CO
64 | > 99.5 µM | NCc1cccc(NC(=O)[C@H](NC(=O)OCc2ccccc2)c2cccc(OC[C@H]3COCCO3)c2)c1
65 | 0.372 µM and 3.47 µM | O=C(Nc1ccc2c(c1)CNC2)c1cc(Cl)cc2nn(-c3ccccc3)nc12
66 | > 99.5 µM | CCCN(C)CC(=O)N1CCC([C@@H](NC(=O)OCc2ccccc2)C(=O)Nc2cccc(CN)c2)CC1
67 | > 99.5 µM | Cn1nnc(S(=O)(=O)N2CCC([C@H](NC(=O)OCc3ccccc3)C(=O)Nc3cccc(CN)c3)CC2)n1
68 | 0.917 µM | COc1cc(C(=O)Nc2ccc3c(c2)CNC3)cc2ccoc12
69 | > 25 µM | NCCc1cc(C(=O)Nc2cc(-c3cccnc3)ccn2)no1
70 | 0.046 µM and 0.042 µM and 0.025 µM | COc1cccc(-c2nc3c(C(=O)Nc4ccc5c(c4)CNC5)cc(F)cc3[nH]2)c1
71 | 3.4 µM | O=C(Nc1cc(Cl)cc(C(=O)Nc2ccc3c(c2)CNCC3)c1)OCc1ccccc1
72 | 94.3 µM | CC1(C)CCC([C@@H](NC(=O)OCc2ccccc2)C(=O)Nc2cccc(CN)c2)CC1
73 | > 25 µM | Cc1nn(C)c(C)c1[C@H]1CCCN1C(=O)Nc1ccc2c(c1)CNC2
